Reference: patent US10155764B2, “Therapeutic compounds and uses thereof” (GENENTECH, INC., priority 2014, dated 2018)

Molecular target: PCAF719-832 bromodomain (Homo sapiens (Human), UniProt Q92831)
Assay: PCAF AlphaLisa binding assay
Settings: PCAF bromodomain 225 nM, biotinylated small molecule ligand 6 nM

PCAF719-832 bromodomain, sequence (Q92831 719-832): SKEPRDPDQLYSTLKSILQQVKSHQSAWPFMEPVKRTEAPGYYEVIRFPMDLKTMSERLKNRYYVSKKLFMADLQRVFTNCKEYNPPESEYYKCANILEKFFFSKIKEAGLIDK

| IC50 | Compound |
| --- | --- |
| > 5000 nM | Cc1cccc2c(N[C@@H](C)[C@H](c3ccccc3)N(C)C)nn(C)c(=O)c12 (single isomer, unassigned) [Example 69A] |
| 170 nM | Cc1cccc2c(N[C@H](C)[C@@H](c3ccccc3)N(C)C)nn(C)c(=O)c12 (single isomer, unassigned) [Example 69B] |
| 36 nM | Cc1cccc2c(=O)n(C)nc(N[C@@H](C)[C@H](c3ccccc3)N(C)C)c12 (single isomer, unassigned) [Example 70A] |
| 1800 nM | Cc1cccc2c(=O)n(C)nc(N[C@H](C)[C@@H](c3ccccc3)N(C)C)c12 (single isomer, unassigned) [Example 70B] |
| > 5000 nM | C[C@H](Nc1nn(C)c(=O)c2[nH]ccc12)[C@H](c1ccccc1)N(C)C (single isomer, unassigned) [Example 71A] |
| 83 nM | C[C@@H](Nc1nn(C)c(=O)c2[nH]ccc12)[C@@H](c1ccccc1)N(C)C (single isomer, unassigned) [Example 71B] |
| 23 nM | C[C@H](Nc1nn(C)c(=O)c2ccccc12)[C@H](c1ccccc1)N(C)C (single isomer, unassigned) [Example 73A] |
| 680 nM | C[C@@H](Nc1nn(C)c(=O)c2ccccc12)[C@@H](c1ccccc1)N(C)C (single isomer, unassigned) [Example 73B] |
| 20 nM | C[C@H](Nc1nn(C)c(=O)c2cccnc12)[C@H](c1ccc(S(=O)(=O)c2ccccc2)cc1)N(C)C (single isomer, unassigned) [Example 74A] |
| 2300 nM | C[C@@H](Nc1nn(C)c(=O)c2cccnc12)[C@@H](c1ccc(S(=O)(=O)c2ccccc2)cc1)N(C)C (single isomer, unassigned) [Example 74B] |
| 4800 nM | CN(C)[C@@H]1c2ccccc2C[C@@H]1Nc1nn(C)c(=O)c2cccnc12 [Example 46A, 8-(((1R,2S)-1-(dimethylamino)-2,3-dihydro-1H-inden-2-yl)amino)-6-methylpyrido[2,3-d]pyridazin-5(6H)-one] |
| > 5000 nM | CN(C)[C@H]1c2ccccc2C[C@H]1Nc1nn(C)c(=O)c2cccnc12 [Example 46B, 8-(((1S,2R)-1-(dimethylamino)-2,3-dihydro-1H-inden-2-yl)amino)-6-methylpyrido[2,3-d]pyridazin-5(6H)-one] |
| 2700 nM | CN(C)[C@@H]1c2ccccc2C[C@@H]1Nc1nn(C)c(=O)c2ccccc12 [Example 47A, 4-(((1R,2S)-1-(dimethylamino)-2,3-dihydro-1H-inden-2-yl)amino)-2-methylphthalazin-1(2H)-one] |
| > 5000 nM | CN(C)[C@H]1c2ccccc2C[C@H]1Nc1nn(C)c(=O)c2ccccc12 [Example 47B, 4-(((1S,2R)-1-(dimethylamino)-2,3-dihydro-1H-inden-2-yl)amino)-2-methylphthalazin-1(2H)-one] |

More lines, now with the values behind:

| Compound | IC50 |
| --- | --- |
| CC[C@H](Nc1nn(C)c(=O)c2ccccc12)[C@H](c1ccccc1)N(C)C (single isomer, unassigned) [Example 56] | 41 nM |
| CC[C@H](Nc1nn(C)c(=O)c2cccnc12)[C@H](c1ccccc1)N(C)C (single isomer, unassigned) [Example 58] | 40 nM |
| CC(C)Oc1ccc([C@@H]([C@H](C)Nc2nn(C)c(=O)c3ccccc23)N(C)C)cc1 (single isomer, unassigned) [Example 59] | 33 nM |
| C[C@H](Nc1nn(C)c(=O)c2ccccc12)[C@H](c1ccccn1)N(C)C (single isomer, unassigned) [Example 60] | 21 nM |
| C[C@H](Nc1nn(C)c(=O)c2ccccc12)[C@H](c1cccnc1)N(C)C (single isomer, unassigned) [Example 61] | 86 nM |
| COc1ccc([C@@H]([C@H](C)Nc2nn(C)c(=O)c3ccccc23)N(C)C)cn1 (single isomer, unassigned) [Example 62] | 63 nM |
| C[C@H](Nc1nn(C)c(=O)c2cccnc12)[C@H](c1ccc(Oc2ccccc2)cc1)N(C)C (single isomer, unassigned) [Example 64] | 290 nM |
| CC(Nc1nn(C)c(=O)c2cccnc12)C(c1ccc(S(=O)(=O)c2ccccc2)cc1)N(C)C (single isomer, unassigned) [Example 74, 8-((1-(dimethylamino)-1-(4-(phenylsulfonyl)phenyl)propan-2-yl)amino)-6-methylpyrido[2,3-d]pyridazin-5(6H)-one] | 40 nM |
| CC(Nc1nn(C)c(=O)c2cccnc12)C(c1cn(C)nn1)N(C)C (single isomer, unassigned) [Example 75, 8-((1-(dimethylamino)-1-(1-methyl-1H-1,2,3-triazol-4-yl)propan-2-yl)amino)-6-methylpyrido[2,3-d]pyridazin-5(6H)-one] | 130 nM |
| C[C@H](Nc1nn(C)c(=O)c2ccccc12)[C@H](c1ccc(OCC2CC2)cc1)N(C)C (single isomer, unassigned) [Example 78] | 44 nM |
| COc1ccc([C@@H]([C@H](C)Nc2nn(C)c(=O)c3ccccc23)N(C)C)cc1 (single isomer, unassigned) [Example 79] | 73 nM |
| C[C@H](Nc1nn(C)c(=O)c2ccccc12)[C@H](c1ccc(Oc2ccccn2)cc1)N(C)C (single isomer, unassigned) [Example 80] | 46 nM |
| C[C@H](Nc1nn(C)c(=O)c2cccnc12)[C@H](c1ccc(C(=O)N(C)Cc2ccccc2)cc1)N(C)C (single isomer, unassigned) [Example 84] | 56 nM |
| CNC(=O)c1ccc([C@@H]([C@H](C)Nc2nn(C)c(=O)c3cccnc23)N(C)C)cc1 (single isomer, unassigned) [Example 85] | 50 nM |
| C[C@H](Nc1nn(C)c(=O)c2ccccc12)[C@H](c1ccc(OCc2ccccc2)cc1)N(C)C (stereo in doubt) [Example 77, 4-((1-(4-(benzyloxy)phenyl)-1-(dimethylamino)propan-2-yl)amino)-2-methylphthalazin-1(2H)-one] | 36 nM |
| CN(C)C(CNc1nn(C)c(=O)c2cccnc12)c1ccccc1 (centres unmarked) [Example 1, 8-((2-(dimethylamino)-2-phenylethyl)amino)-6-methylpyrido[2,3-d]pyridazin-5(6H)-one] | 86 nM |
| CN(C)[C@H](CNc1nn(C)c(=O)c2cccnc12)c1ccccc1 [Example 1A, (S)-8-((2-(dimethylamino)-2-phenylethyl)amino)-6-methylpyrido[2,3-d]pyridazin-5(6H)-one] | 45 nM |
| CN(C)[C@@H](CNc1nn(C)c(=O)c2cccnc12)c1ccccc1 [Example 1B, (R)-8-((2-(dimethylamino)-2-phenylethyl)amino)-6-methylpyrido[2,3-d]pyridazin-5(6H)-one] | 2200 nM |

| Compound | IC50 |
| --- | --- |
| CN(C)CCNc1nn(C)c(=O)c2cccnc12 [Example 2, 8-((2-(dimethylamino)ethyl)amino)-6-methylpyrido[2,3-d]pyridazin-5(6H)-one] | 140 nM |
| COc1ccc2c(=O)n(C)nc(NCCN(C)C)c2c1 [Example 3, 4-((2-(dimethylamino)ethyl)amino)-6-methoxy-2-methylphthalazin-1(2H)-one] | 410 nM |
| COc1ccc2c(NCCN(C)C)nn(C)c(=O)c2c1 [Example 4, 4-((2-(dimethylamino)ethyl)amino)-7-methoxy-2-methylphthalazin-1(2H)-one] | 470 nM |
| CN(C)CCNc1nn(C)c(=O)c2cccc(F)c12 [Example 5, 4-((2-(dimethylamino)ethyl)amino)-5-fluoro-2-methylphthalazin-1(2H)-one] | 130 nM |
| CN(C)CCNc1nn(C)c(=O)c2c(F)cccc12 [Example 6, 4-((2-(dimethylamino)ethyl)amino)-8-fluoro-2-methylphthalazin-1(2H)-one] | 87 nM |
| CN(C)CCSc1nn(C)c(=O)c2ccccc12 [Example 9, 4-((2-(dimethylamino)ethyl)thio)-2-methylphthalazin-1(2H)-one] | 890 nM |
| CN1CC(Nc2nn(C)c(=O)c3cccnc23)C1 [Example 18, 6-methyl-8-((1-methylazetidin-3-yl)amino)pyridol[2,3-d]pyridazin-5(6H)-one] | 1500 nM |
| Cn1nc(NC2CNC2)c2ncccc2c1=O [Example 19, 8-(azetidin-3-ylamino)-6-methylpyrido[2,3-d]pyridazin-5(6H)-one] | 3400 nM |
| CCN(CC)CCNc1nn(C)c(=O)c2ccccc12 [Example 23, 4-((2-(diethylamino)ethyl)amino)-2-methylphthalazin-1(2H)-one] | 2400 nM |
| Cn1nc(NCCN2CCCC2)c2ccccc2c1=O [Example 24, 2-methyl-4-((2-(pyrrolidin-1-yl)ethyl)amino)phthalazin-1(2H)-one] | 920 nM |
| CN(C)CCNc1nn(C)c(=O)c2ccccc12 [Example 29, 4-((2-(dimethylamino)ethyl)amino)-2-methylphthalazin-1(2H)-one] | 150 nM |
| CC(C)NCCNc1nn(C)c(=O)c2ccccc12 [Example 40, 4-((2-(isopropylamino)ethyl)amino)-2-methylphthalazin-1(2H)-one] | 9400 nM |
| Cn1nc(NCCN2CCCCC2)c2ccccc2c1=O [Example 41, 2-methyl-4-((2-(piperidin-1-yl)ethyl)amino)phthalazin-1(2H)-one] | 2200 nM |
| CN1CCN(CCNc2nn(C)c(=O)c3ccccc23)CC1 [Example 42, 2-methyl-4-((2-(4-methylpiperazin-1-yl)ethyl)amino)phthalazin-1(2H)-one] | 9600 nM |
| CN(C)CCOc1nn(C)c(=O)c2ccccc12 [Example 48, 4-(2-(dimethylamino)ethoxy)-2-methylphthalazin-1(2H)-one] | 450 nM |
| COCCN(C)CCNc1nn(C)c(=O)c2ccccc12 [Example 49, 4-((2-((2-methoxyethyl)(methyl)amino)ethyl)amino)-2-methylphthalazin-1(2H)-one] | 3500 nM |
| Cn1nc(NCCN2CCC2)c2ccccc2c1=O [Example 50, 4-((2-(azetidin-1-yl)ethyl)amino)-2-methylphthalazin-1(2H)-one] | 990 nM |
| CN(CCNc1nn(C)c(=O)c2ccccc12)C1COC1 [Example 51, 2-methyl-4-((2-(methyl(oxetan-3-yl)amino)ethyl)amino)phthalazin-1(2H)-one] | 800 nM |
